Reference: patent US6365178B1, “Method of making pressure sensitive adhesive matrix patches for transdermal drug delivery using hydrophilic salts of drugs and hydrophobic pressure sensitive adhesive dispersions” (priority 1996, dated 2002)
Where a name gives a salt, the structure may show the parent alone. Values belong to the molecule of their own block, whether it stands above or below them.

Key:
[1] = Visual/microscopic observation of matrix films for drug crystals after preparation and on storage (physical stability); type: physicochemical; details: for Drug crystals in adhesive matrix/laminate: Example 6, DURO-TAK 2852 with propylene glycol/isopropyl myristate, 10% ketorolac on free acid basis, visual and microscopic
Method: As used herein, “physical stability” of a drug in a matrix patch includes the lack of recrystallization of the drug in the dried adhesive layer of the patch.
Pressure sensitive adhesive matrix systems described herein were prepared as follows. First, the solids content of a water-based or solvent-based adhesive in liquid form was determined by placing a known weight of liquid in a weighed aluminum dish and evaporating the solvents overnight in a 70° C. convection oven. The content of solid adhesive in the liquid was calculated by dividing the adhesive solid weight after drying by the initial total liquid weight. In some cases, the polyisobutylene (PIB) adhesives were prepared from polyisobutylene solids. The solid PIB was first dissolved in heptane to achieve a final solid content of about 30% by weight, and then the exact solid content was determined as described above. Next, a weighed quantity of adhesive liquid was added to a glass bottle, and the solid adhesive weight was calculated from the known solid fraction of the given adhesive liquid. The drug substance (hydrophilic salt or free drug form) was weighed and added to the adhesive solution in a quantity necessary to achieve a selected dry matrix film composition. The liquid containing the adhesive polymer drug substance was then mixed overnight. […] After mixing, approximately 8 ml of the solution was dispensed on a silanized polyester release liner and film cast using a casting knife with a gap size appropriate to achieve a final dried thickness of approximately 0.05-0.1 mm. The cast was dried in a 70° C. convection oven for 15-30 minutes to yield a dried matrix onto which an 0.08 mm thick polyethylene backing film was laminated. These matrix systems were then used to conduct in vitro skin flux experiments as described below. […]
The systems manufactured with the salt and the water-based adhesive dispersions were stored at room temperature and examined using optical microscopy at 100× magnification for the presence of drug crystals.

[2] = Dissolution of drug substance in liquid adhesive or solvent during matrix preparation; type: physicochemical; details: for Dissolution in enhancer-acrylic adhesive solution: Example 6, DURO-TAK 2852 with propylene glycol/isopropyl myristate, 10% ketorolac on free acid basis
Method: Pressure sensitive adhesive matrix systems described herein were prepared as follows. First, the solids content of a water-based or solvent-based adhesive in liquid form was determined by placing a known weight of liquid in a weighed aluminum dish and evaporating the solvents overnight in a 70° C. convection oven. The content of solid adhesive in the liquid was calculated by dividing the adhesive solid weight after drying by the initial total liquid weight. In some cases, the polyisobutylene (PIB) adhesives were prepared from polyisobutylene solids. […] Next, a weighed quantity of adhesive liquid was added to a glass bottle, and the solid adhesive weight was calculated from the known solid fraction of the given adhesive liquid. The drug substance (hydrophilic salt or free drug form) was weighed and added to the adhesive solution in a quantity necessary to achieve a selected dry matrix film composition. The liquid containing the adhesive polymer drug substance was then mixed overnight. […] The cast was dried in a 70° C. convection oven for 15-30 minutes to yield a dried matrix onto which an 0.08 mm thick polyethylene backing film was laminated. These matrix systems were then used to conduct in vitro skin flux experiments as described below.

[3] = In vitro skin flux, modified Franz non-jacketed diffusion cells; type: in vitro ADME, human; details: Example 6, DURO-TAK 2852 patch; for Average cumulative amount of ketorolac released after 24 hours / In vitro skin flux of ketorolac: 10% ketorolac on free acid basis, 8% enhancer (propylene glycol/isopropyl myristate); for In vitro skin flux of ketorolac: Mean±SD, n=2/10 skins/diffusion cells
Method: In vitro skin flux studies were conducted using human cadaver epidermal membrane in modified Franz non-jacketed diffusion cells. […] This method involves the exposure of the fullthickness skin to water at 60° C. for 60 seconds. After this period, the epidermal membrane was gently peeled from the dermis and stored in aluminum foil at −5 ° C. Prior to skin permeation experiments, the silanized release liner was removed from the adhesive matrix system, and the adhesive was affixed to the stratum corneum side of the thawed epidermal membrane, which was then cut to an appropriate size and placed between the two halves of the diffusion cell with the stratum corneum facing the donor compartment.
The receiver compartment was filled with water or an aqueous buffer appropriate to maintain sink conditions for the drug. All receiver media included 0.02% (w/w) sodium azide to inhibit bacterial growth. The diffusion cell was placed in a temperature controlled circulating water bath calibrated to maintain the surface temperature of the skin at 32° C. The receiver compartment was constantly stirred by a magnetic stir bar in the receiver compartment agitated by a magnetic stirring module placed under the water bath. At predetermined sampling intervals, the entire contents of the receiver compartment were collected for drug quantitation, and the receiver compartment was filled with fresh receiver solution, taking care to eliminate any air bubbles at the skin/solution interface.
The cumulative amount of drug permeated per unit area at any time t (Qt, μg/cm^2) was determined according to the following equation: [formula]
where Ct (μg/cm^3) is the concentration of the receiver compartment at sample time t (hours), V is the volume of the receiver compartment of the diffusion cell (6.3 cm^3), and A is the diffusional area of the cell (0.64 cm^2).

[4] = disclosed in U.S. Pat. No. 5,589,498 (Example 2); cited from earlier work
[5] = Example 2, NACOR 72-9965, 1% or 2% (w/w)
[6] = Example 2, TSR and DURO-TAK 2516, 1% or 2% (w/w)
[7] = Example 5, TSR, equivalent to 1% (w/w) tromethamine salt
[8] = Example 7, TSR, equivalent to 1% or 2% (w/w) diclofenac sodium
[9] = Example 5, NACOR 72-9965, 1% (w/w)
[10] = Example 8, Nacor 72-9965 with 5.0% Kollidon 90F, 12%

SMILES: O=C1CC2(CCCC2)CC(=O)N1CCCCN1CCN(c2ncccn2)CC1 [Buspirone HCl, buspirone hydrochloride]
Observations: no crystals observed after ([1]; 5% (w/w) drug in Lord PIB-500 (water-based PIB) matrix, room temperature, microscopic): No crystals observed after 7 weeks
Observations: drug crystals ([1]; 5% (w/w) drug in MA-24 (organic solvent-based PIB) matrix, immediately after preparation): crystals present
Drug crystals in dried films ([1]; Example 1, organic solvent-based adhesives MA-24, DUROTAK 2979, 5% (w/w), hydrochloride): filled with drug crystals
Drug crystals in dried film ([1]; Example 1, water-based adhesive dispersions PIB-500, NACOR 72-9965, 5% (w/w)): no crystals were found
Drug crystals in dried adhesive matrix [1, 5]: visibly free of drug crystals
Drug crystals in final dried casts [1, 6]: contained visible solid drug crystals
Drug crystals in laminate ([1]; PIB adhesive (MA-24)/buspirone hydrochloride/isocetyl alcohol 86/1.5/12.5% (w/w), naked eye and microscopic): filled with buspirone crystals
Results: buspirone crystals in resulting cast ([1]; Table 6, Chloroform): cast contained extensive buspirone crystals.
Results: buspirone crystals in resulting cast ([1]; Table 6, Ethyl acetate): resulting cast contained extensive buspirone crystals.
Results: casting of mixture ([1]; Table 6, Methanol, adhesive formed a gel-like ball): impossible to cast
Results: buspirone crystals in resulting cast ([1]; Table 6, Toluene): contained extensive buspirone crystals.
Results: buspirone crystallization in resulting cast ([1]; Table 6, Water, buspirone only in water-rich phase): extensively within 24 hours after casting.
Dissolution in organic solvent-based adhesives ([2]; Example 1, MA-24, DUROTAK 2979, 5% (w/w) in dried film, hydrochloride): did not dissolve
Dissolution in water-based adhesive dispersions ([2]; Example 1, PIB-500, NACOR 72-9965, 5% (w/w) in dried film, hydrochloride): dissolved readily
Dissolution in water-based adhesive dispersion [2, 5]: dissolved completely
Dissolution in organic solvents of solvent-based adhesives [2, 6]: did not dissolve completely
Dissolution in acetone ([2]; Example 3, 0.70 g in 9.2 g acetone): did not completely dissolve
Dissolution in acetone/isocetyl alcohol mixture ([2]; Example 3, 0.70 g, 9.2 g acetone, 6.1 g isocetyl alcohol): did not completely dissolve
Dissolution in acetone/isocetyl alcohol/PIB adhesive mixture ([2]; Example 3, blended with MA-24 organic solvent-based PIB adhesive): did not completely dissolve
Results: dissolution in solvent and in solvent/isocetyl alcohol/PIB adhesive mixture ([2]; Table 6, Acetone 12.0 g, 0.7 g drug): Buspirone hydrochloride (0.7 g) did not dissolve in
Results: effect of addition of solvent solution PIB adhesive ([2]; Table 6, Chloroform): resulted in precipitation of buspirone, and the resulting
Results: dissolution in solvent and solvent/isocetyl alcohol mixture ([2]; Table 6, Chloroform 12.0 g, 0.7 g drug): Buspirone hydrochloride (0.7 g) dissolved in chloroform
Results: dissolution in solvent and in solvent/isocetyl alcohol/PIB adhesive mixture ([2]; Table 6, Ethyl acetate 12.0 g, 0.7 g drug): Buspirone hydrochloride (0.7 g) did not dissolve in
Results: behaviour of solvent/isocetyl alcohol/PIB adhesive mixture ([2]; Table 6, Methanol): phase separated
Results: dissolution in solvent ([2]; Table 6, Methanol 12.0 g, 0.7 g drug): Buspirone hydrochloride (0.7 g) dissolved in methanol
Results: dissolution in solvent and in solvent/isocetyl alcohol/PIB adhesive mixture ([2]; Table 6, Toluene 12.0 g, 0.7 g drug): Buspirone hydrochloride (0.7 g) did not dissolve in
Results: behaviour of solvent/isocetyl alcohol/adhesive solution ([2]; Table 6, Water): phase separated. The resulting cast contained distinct
Results: dissolution in solvent ([2]; Table 6, Water 1.5 g, 0.7 g drug): Buspirone hydrochloride (0.7 g) dissolved in water

SMILES: CC(=O)CC(c1ccccc1)c1c(O)c2ccccc2oc1=O (centres unmarked) [Warfarin free drug, warfarin]
Drug crystals in dry film ([1]; Example 8, TSR, 12% (w/w), visible and microscopic): free from drug crystals
Dissolution in organic solvents ([2]; Example 8, TSR, 12% (w/w)): dissolved readily

SMILES: Clc1cccc(Cl)c1N=C1NCCN1 [clonidine free base, clonidine]
Drug crystals in dry matrix film ([1]; Example 10, VISTANEX MM L-100/LM-MH PIB blend, equivalent to 2% (w/w) HCl salt): free from drug crystals
Dissolution in organic solvent solution ([2]; Example 10, VISTANEX MM L-100/LM-MH PIB blend in organic solvents, equivalent to 2% (w/w) HCl salt): dissolved readily

SMILES: O=C(O)Cc1ccccc1Nc1c(Cl)cccc1Cl [diclofenac free acid, diclofenac]
Drug crystals in dried matrix [1, 8]: visually free of drug crystals
Dissolution in organic solvent system [2, 8]: completely dissolved

SMILES: CC(=O)CC(c1ccccc1)c1c(O)c2ccccc2oc1=O (centres unmarked) [sodium warfarin, warfarin sodium]
Drug crystals in dry matrix [1, 10]: free from visible and microscopic drug crystals
Dissolution in water-based dispersion [2, 10]: dissolved readily

More lines, main results first:

Average cumulative amount of ketorolac released after 24 hours [3]: 583.3±94.6 μg/cm^2
In vitro skin flux of ketorolac [3]: 25.4±4.2 μg/cm^2/h
Drug crystals in dried matrix [1, 7]: visually free of any crystals
Dissolution in organic solvent system [2, 7]: completely dissolved
Dissolution in enhancer-acrylic adhesive solution [2]: formed a homogeneous solution
SMILES: O=C(c1ccccc1)c1ccc2n1CCC2C(=O)O (centres unmarked) [Ketorolac free acid, ketorolac]
Drug crystals in adhesive matrix/laminate [1]: visibly homogeneous and free from crystals
24 hour cumulative release [4]: 461.7±83.8
Flux [4]: 21.6±3.6 μg/cm^2/h

Drug crystals in dried matrix [1, 8]: contained crystallized drug
Dissolution in organic solvent system [2, 8]: not sufficiently soluble
SMILES: O=C(O)Cc1ccccc1Nc1c(Cl)cccc1Cl [diclofenac sodium]
Drug crystals in dried matrices ([1]; Example 7, water-based NACOR 72-9965 and ROBOND PS20, 1% or 2% (w/w)): physically stable and visually free of drug crystals

Average cumulative amount of ketorolac released after 24 hours [3]: 171.6±49.0 μg/cm^2
In vitro skin flux of ketorolac [3]: 7.5±2.2 μg/cm^2/h
Ketorolac flux as % of the flux observed with the system prepared with the free acid ([3]; 14.9% ketorolac tromethamine): 30%
Drug crystals in dried matrix [1, 9]: free of drug crystals
Drug crystals in dried matrix [1, 7]: contained crystallized drug
Dissolution in water/emulsion system [2, 9]: dissolved completely
Dissolution in organic solvent system [2, 7]: did not completely dissolve
Dissolution in enhancer-acrylic adhesive solution [2]: does not dissolve
SMILES: O=C(c1ccccc1)c1ccc2n1CCC2C(=O)O (centres unmarked) [ketorolac tromethamine]
Drug crystals in adhesive matrix/laminate [1]: visibly cloudy and extensive crystals were visible
